Among the data in ChEMBL document CHEMBL3779879, “Structural hybridization of three aminoglycoside antibiotics yields a potent broad-spectrum bactericide that eludes bacterial resistance enzymes” (2016) are MIC values, retold here.

What all share (type): functional
Test [1] concerns Escherichia coli. Briefly: Antibacterial activity against Escherichia coli expressing APH(3')-Ib.
For test [2], the system named is Escherichia coli. In words: Antibacterial activity against Escherichia coli expressing AAC(3)-IV.
Test [3] concerns Pseudomonas aeruginosa. In words: Antibacterial activity against Pseudomonas aeruginosa expressing ANT(4')-II.
Test [4] deals with Acinetobacter baumannii. In words: Antibacterial activity against Acinetobacter baumannii expressing AAC(3)-I, APH(3')-VI, ANT(2'')-I.
The test system of another test is Klebsiella pneumoniae. In words: Antibacterial activity against Klebsiella pneumoniae ATCC 10031.
The next test relates to Enterobacter cloacae. Briefly: Antibacterial activity against Enterobacter cloacae expressing APH(3')-I, ANT(2'')-I, AAC(6').
Test [5] has as its system Escherichia coli. Briefly: Antibacterial activity against Escherichia coli expressing A-site methyltransferase ArmA.
Test [6] concerns Escherichia coli. Briefly: Antibacterial activity against Escherichia coli ATCC 25922.
Test [7] deals with Staphylococcus aureus. In words: Antibacterial activity against Staphylococcus aureus ATCC 29213.
The test system of test [8] is Staphylococcus aureus. In words: Antibacterial activity against Staphylococcus aureus expressing APH(3'/5'')-III.
Test [9] has as its system Escherichia coli. In words: Antibacterial activity against Escherichia coli expressing ANT(2'')-I.
Test [10] concerns Pseudomonas aeruginosa. Briefly: Antibacterial activity against Pseudomonas aeruginosa ATCC 27853 expressing APH(3')-IIa.
For test [11], the system named is Pseudomonas aeruginosa. In words: Antibacterial activity against Pseudomonas aeruginosa expressing AAC(6')-II.
Test [12] has as its system Staphylococcus aureus. In words: Antibacterial activity against Staphylococcus aureus expressing ANT(4')-I.
In test [13] the test system is Staphylococcus aureus. Briefly: Antibacterial activity against Staphylococcus aureus expressing AAC(6')/APH(2'').
The test system of test [14] is Acinetobacter baumannii. In words: Antibacterial activity against Acinetobacter baumannii.

SMILES strings stand for the structures. ≈ marks a conversion by molar mass, not a printed value. Bounds are passed on as bounds.

For orientation: MIC means the smallest concentration in the dilution series that meets the test's criterion for growth inhibition. A low value points to greater potency. Turning to `NCC[C@H](O)C(=O)N[C@@H]1C[C@H](N)[C@@H](O[C@H]2O[C@H](CO)[C@@H](O)[C@H](O)[C@H]2N)[C@H](O[C@@H]2O[C@H](CO)[C@@H](O[C@H]3O[C@@H](CN)[C@@H](O)[C@H](O)[C@H]3N)[C@H]2O)[C@H]1O`, the MIC was 2 µg/mL (≈ 2.79 µM) against Escherichia coli [1]; 4 µg/mL (≈ 5.58 µM) against Escherichia coli [2]; 4 µg/mL (≈ 5.58 µM) with Pseudomonas aeruginosa [3]; 64 µg/mL (≈ 89.3 µM) in the test on Acinetobacter baumannii [4]; 1 µg/mL (≈ 1.4 µM) against Klebsiella pneumoniae; 8 µg/mL (≈ 11.2 µM) in the test with Enterobacter cloacae. In addition, the minimal inhibitory concentration (MIC) in the test on Escherichia coli [5] was 4 µg/mL (≈ 5.58 µM); against Escherichia coli [6], 2 µg/mL (≈ 2.79 µM); against Staphylococcus aureus [7], 2 µg/mL (≈ 2.79 µM); with Staphylococcus aureus [8], 32 µg/mL (≈ 44.6 µM); against Escherichia coli [9] it was 8 µg/mL (≈ 11.2 µM); in the test with Pseudomonas aeruginosa [10] it was 8 µg/mL (≈ 11.2 µM). In addition, the minimum inhibitory concentration (MIC) is 8 µg/mL (≈ 11.2 µM) in the test on Pseudomonas aeruginosa [11], more than 64 µg/mL against Staphylococcus aureus [12], 32 µg/mL (≈ 44.6 µM) against Staphylococcus aureus [13] and 2 µg/mL (≈ 2.79 µM) with Acinetobacter baumannii [14].

`NCC1O[C@H](O[C@H]2[C@@H](O)[C@H](O[C@H]3[C@H](O)[C@@H](N)C[C@@H](N)[C@@H]3O[C@H]3O[C@H](CN)[C@@H](O)[C@H](O)[C@H]3N)O[C@@H]2CO)[C@H](N)[C@@H](O)[C@@H]1O` (stereo partly drawn): the MIC in the test on Escherichia coli [1] was 64 µg/mL (≈ 104 µM); in the test on Escherichia coli [2] it was 2 µg/mL (≈ 3.25 µM); against Pseudomonas aeruginosa [3], 8 µg/mL (≈ 13 µM); with Acinetobacter baumannii [4], more than 64 µg/mL; against Klebsiella pneumoniae it was 0.5 µg/mL (≈ 0.813 µM); against Enterobacter cloacae it was more than 64 µg/mL. The MIC in the test with Escherichia coli [5] is 1 µg/mL (≈ 1.63 µM); in the test on Escherichia coli [6], 2 µg/mL (≈ 3.25 µM); against Staphylococcus aureus [7], 0.5 µg/mL (≈ 0.813 µM); in the test with Staphylococcus aureus [8], more than 64 µg/mL; in the test on Escherichia coli [9], 2 µg/mL (≈ 3.25 µM); against Pseudomonas aeruginosa [10], 32 µg/mL (≈ 52.1 µM). Moreover, the MIC was 8 µg/mL (≈ 13 µM) in the test with Pseudomonas aeruginosa [11], more than 64 µg/mL against Staphylococcus aureus [12], more than 64 µg/mL in the test with Staphylococcus aureus [13] and 1 µg/mL (≈ 1.63 µM) against Acinetobacter baumannii [14].

`CNCC1=CC[C@H](N)[C@H](O[C@H]2[C@H](O[C@@H]3O[C@H](CO)[C@@H](O[C@@H]4O[C@H](CN)[C@H](O)[C@@H](O)[C@@H]4N)[C@H]3O)[C@@H](O)[C@H](N)C[C@@H]2N)O1`: the MIC is more than 64 µg/mL in the test on Escherichia coli [1]; 8 µg/mL (≈ 13.5 µM) against Escherichia coli [2]; 4 µg/mL (≈ 6.73 µM) in the test on Pseudomonas aeruginosa [3]; more than 64 µg/mL in the test on Acinetobacter baumannii [4]; 2 µg/mL (≈ 3.36 µM) in the test with Klebsiella pneumoniae; more than 64 µg/mL with Enterobacter cloacae. Further, the MIC against Escherichia coli [5] was found to be 16 µg/mL (≈ 26.9 µM); with Escherichia coli [6], 8 µg/mL (≈ 13.5 µM); with Staphylococcus aureus [7] it was 1 µg/mL (≈ 1.68 µM); in the test with Staphylococcus aureus [8] it was 16 µg/mL (≈ 26.9 µM); with Escherichia coli [9] it was 16 µg/mL (≈ 26.9 µM); against Pseudomonas aeruginosa [10] it was 2 µg/mL (≈ 3.36 µM). Further, the MIC against Pseudomonas aeruginosa [11] is more than 64 µg/mL; in the test on Staphylococcus aureus [12], 2 µg/mL (≈ 3.36 µM); in the test with Staphylococcus aureus [13] it was more than 64 µg/mL; in the test with Acinetobacter baumannii [14], 4 µg/mL (≈ 6.73 µM).

In the case of `NCC[C@H](O)C(=O)N[C@@H]1C[C@H](N)[C@@H](O[C@H]2OC(CN)=CC[C@H]2N)[C@H](O[C@@H]2O[C@H](CO)[C@@H](O[C@@H]3O[C@H](CN)[C@H](O)[C@@H](O)[C@@H]3N)[C@H]2O)[C@H]1O`, the minimum inhibitory concentration (MIC) against Escherichia coli [1] is 0.25 µg/mL (≈ 0.367 µM); in the test with Escherichia coli [2], 1 µg/mL (≈ 1.47 µM); in the test with Pseudomonas aeruginosa [3], 0.5 µg/mL (≈ 0.733 µM); against Acinetobacter baumannii [4], 1 µg/mL (≈ 1.47 µM); against Klebsiella pneumoniae, 0.5 µg/mL (≈ 0.733 µM); in the test with Enterobacter cloacae it was 8 µg/mL (≈ 11.7 µM). Further, the minimum inhibitory concentration (MIC) is 1 µg/mL (≈ 1.47 µM) with Escherichia coli [5]; 0.5 µg/mL (≈ 0.733 µM) against Escherichia coli [6]; 0.5 µg/mL (≈ 0.733 µM) against Staphylococcus aureus [7]; 1 µg/mL (≈ 1.47 µM) against Staphylococcus aureus [8]; 4 µg/mL (≈ 5.87 µM) against Escherichia coli [9]; 0.25 µg/mL (≈ 0.367 µM) against Pseudomonas aeruginosa [10]. The minimum inhibitory concentration (MIC) with Pseudomonas aeruginosa [11] stood at 0.5 µg/mL (≈ 0.733 µM); with Staphylococcus aureus [12] it was 1 µg/mL (≈ 1.47 µM); in the test with Staphylococcus aureus [13], 2 µg/mL (≈ 2.93 µM); against Acinetobacter baumannii [14] it was 0.5 µg/mL (≈ 0.733 µM).

Take `NC[C@H]1O[C@@H](O[C@H]2[C@@H](O)[C@H](O[C@@H]3[C@@H](O)[C@H](N)C[C@H](N)[C@H]3O[C@@H]3OC(CO)=CC[C@@H]3N)O[C@@H]2CO)[C@@H](N)[C@H](O)[C@H]1O` (stereo in doubt): the MIC against Escherichia coli [1], against Escherichia coli [2], in the test on Pseudomonas aeruginosa [3], against Acinetobacter baumannii [4], in the test on Klebsiella pneumoniae and against Enterobacter cloacae was more than 64 µg/mL throughout. Besides, the MIC against Escherichia coli [5] was more than 64 µg/mL; against Escherichia coli [6], more than 64 µg/mL; with Staphylococcus aureus [7], 8 µg/mL (≈ 13.8 µM); with Staphylococcus aureus [8] it was more than 64 µg/mL; in the test with Escherichia coli [9] it was more than 64 µg/mL; with Pseudomonas aeruginosa [10], more than 64 µg/mL. Further, the minimum inhibitory concentration (MIC) was more than 64 µg/mL in the test on Pseudomonas aeruginosa [11], 16 µg/mL (≈ 27.5 µM) against Staphylococcus aureus [12], more than 64 µg/mL with Staphylococcus aureus [13] and more than 64 µg/mL in the test on Acinetobacter baumannii [14].

As for `NCC1=CC[C@H](N)[C@H](O[C@H]2[C@H](O[C@@H]3O[C@H](CO)[C@@H](O[C@@H]4O[C@H](CN)[C@H](O)[C@@H](O)[C@@H]4N)[C@H]3O)[C@@H](O)[C@H](N)C[C@@H]2N)O1` (stereo in doubt), the MIC is more than 64 µg/mL in the test with Escherichia coli [1]; 8 µg/mL (≈ 13.8 µM) with Escherichia coli [2]; 1 µg/mL (≈ 1.72 µM) in the test on Pseudomonas aeruginosa [3]; more than 64 µg/mL in the test on Acinetobacter baumannii [4]; 0.5 µg/mL (≈ 0.861 µM) in the test on Klebsiella pneumoniae; more than 64 µg/mL against Enterobacter cloacae. For the same compound, the MIC with Escherichia coli [5] was 2 µg/mL (≈ 3.44 µM); with Escherichia coli [6], 2 µg/mL (≈ 3.44 µM); in the test with Staphylococcus aureus [7], 1 µg/mL (≈ 1.72 µM); in the test with Staphylococcus aureus [8], 16 µg/mL (≈ 27.6 µM); with Escherichia coli [9], 2 µg/mL (≈ 3.44 µM); in the test with Pseudomonas aeruginosa [10], 0.5 µg/mL (≈ 0.861 µM). Also, the MIC against Pseudomonas aeruginosa [11] was more than 64 µg/mL; against Staphylococcus aureus [12], 1 µg/mL (≈ 1.72 µM); in the test on Staphylococcus aureus [13] it was 64 µg/mL (≈ 110 µM); with Acinetobacter baumannii [14] it was 1 µg/mL (≈ 1.72 µM).

On to `NCC[C@H](O)C(=O)N[C@@H]1C[C@H](N)[C@@H](O[C@H]2O[C@H](CN)[C@@H](O)[C@H](O)[C@H]2O)[C@H](O)[C@H]1O[C@H]1O[C@H](CO)[C@@H](O)[C@H](N)[C@H]1O` [AMIKACIN], for which the MIC against Escherichia coli [1] was 0.5 µg/mL (≈ 0.854 µM); in the test with Escherichia coli [2], 2 µg/mL (≈ 3.42 µM); with Pseudomonas aeruginosa [3], 32 µg/mL (≈ 54.6 µM); with Acinetobacter baumannii [4], more than 64 µg/mL; against Klebsiella pneumoniae it was 0.5 µg/mL (≈ 0.854 µM); in the test on Enterobacter cloacae it was 64 µg/mL (≈ 109 µM). The minimum inhibitory concentration (MIC) in the test with Escherichia coli [5] is more than 64 µg/mL; against Escherichia coli [6] it was 2 µg/mL (≈ 3.42 µM); with Staphylococcus aureus [7] it was 2 µg/mL (≈ 3.42 µM); against Staphylococcus aureus [8], 8 µg/mL (≈ 13.7 µM); in the test with Escherichia coli [9] it was 4 µg/mL (≈ 6.83 µM); against Pseudomonas aeruginosa [10] it was 2 µg/mL (≈ 3.42 µM). In addition, the MIC with Pseudomonas aeruginosa [11] amounted to 4 µg/mL (≈ 6.83 µM); with Staphylococcus aureus [12] it was 64 µg/mL (≈ 109 µM); against Staphylococcus aureus [13] it was 64 µg/mL (≈ 109 µM); with Acinetobacter baumannii [14] it was 2 µg/mL (≈ 3.42 µM).

On to `NC[C@@H]1O[C@H](O[C@H]2[C@@H](O)[C@H](O[C@@H]3[C@@H](O)[C@H](N)C[C@H](N)[C@H]3O[C@H]3O[C@H](CO)[C@@H](O)[C@H](O)[C@H]3N)O[C@@H]2CO)[C@H](N)[C@@H](O)[C@@H]1O` [PAROMOMYCIN], for which the MIC in the test with Escherichia coli [1] was more than 64 µg/mL; against Escherichia coli [2] it was 8 µg/mL (≈ 13 µM); against Pseudomonas aeruginosa [3], more than 64 µg/mL; against Acinetobacter baumannii [4], more than 64 µg/mL; in the test on Klebsiella pneumoniae, 2 µg/mL (≈ 3.25 µM); with Enterobacter cloacae, more than 64 µg/mL. The minimal inhibitory concentration (MIC) was 4 µg/mL (≈ 6.5 µM) with Escherichia coli [5]; 4 µg/mL (≈ 6.5 µM) with Escherichia coli [6]; 2 µg/mL (≈ 3.25 µM) with Staphylococcus aureus [7]; more than 64 µg/mL in the test on Staphylococcus aureus [8]; 4 µg/mL (≈ 6.5 µM) in the test on Escherichia coli [9]; more than 64 µg/mL against Pseudomonas aeruginosa [10]. Moreover, the minimal inhibitory concentration (MIC) was more than 64 µg/mL with Pseudomonas aeruginosa [11], more than 64 µg/mL against Staphylococcus aureus [12], more than 64 µg/mL in the test with Staphylococcus aureus [13] and 4 µg/mL (≈ 6.5 µM) against Acinetobacter baumannii [14].
